How the values were obtained:
Assay in all cases: Histone peptide microarray
Assay type in all cases: binding, human
Conditions in all cases: each array performed twice, total n = 4
CHD4 (PPCC) = tested on: CHD4 (PPCC)
Summary of the method: (§1)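 Steps: express and purify GST-tagged PHD reader; incubate 0.5 μM protein on a peptide microarray (293 histone peptides, single or combined PTMs) following an optimized protocol; average signal across 4 replicates.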

CHD5 (PPCC) = tested on: CHD5 (PPCC)
Summary of the method: as §1

DIDO1 = tested on: DIDO1
Summary of the method: as §1

RAG2 = tested on: RAG2
Summary of the method: as §1

DPF2 (PPC2W2) = tested on: DPF2 (PPC2W2)
Summary of the method: as §1

KDM5B (1) = tested on: KDM5B (1)
Summary of the method: as §1

SP140L = tested on: SP140L
Summary of the method: as §1

MORC3 (CW) = tested on: MORC3 (CW)
Summary of the method: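 GST-PHD reader, 0.5 μM, probed on 293-peptide histone array (single/combinatorial PTMs); optimized array protocol; signal = mean ± SD, n = 4.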

KDM5A (3) = tested on: KDM5A (3)
Summary of the method: as §1

KDM4C (TTP) = tested on: KDM4C (TTP)
Summary of the method: as §1

ING5 = tested on: ING5
Summary of the method: as §1

MLL5 = tested on: MLL5
Summary of the method: as §1

TRIM66 (PB) = tested on: TRIM66 (PB)
Summary of the method: as §1

KDM7A = tested on: KDM7A
Summary of the method: as §1

CHD5 (PCC) = tested on: CHD5 (PCC)
Summary of the method: as §1

KDM5A (1) = tested on: KDM5A (1)
Summary of the method: as §1

PHF8 = tested on: PHF8
Summary of the method: as §1

AIRE (PP) = tested on: AIRE (PP)
Summary of the method: as §1

TAF3 = tested on: TAF3
Summary of the method: as §1

PHF2 = tested on: PHF2
Summary of the method: as §1

ING3 = tested on: ING3
Summary of the method: as §1

BPTF (PB) = tested on: BPTF (PB)
Summary of the method: as §1

KDM5B (3) = tested on: KDM5B (3)
Summary of the method: as §1

BAZ2B = tested on: BAZ2B
Summary of the method: as §1

PHF13 = tested on: PHF13
Summary of the method: as §1

ING1 = tested on: ING1
Summary of the method: as §1

PHF21A = tested on: PHF21A
Summary of the method: as §1

PHF23 = tested on: PHF23
Summary of the method: as §1

PHRF1 (RP) = tested on: PHRF1 (RP)
Summary of the method: as §1

ING4 = tested on: ING4
Summary of the method: as §1

ING2 = tested on: ING2
Summary of the method: as §1

H3K18ac (1-32): H3 1-32
Array Heatmap value (peptide array signal) (CHD4 (PPCC); CHD4 (PPCC), sheet "Array Heatmap"): 0.5307
Array Heatmap value (peptide array signal) (CHD5 (PPCC); CHD5 (PPCC), sheet "Array Heatmap"): 0.5424
Array Heatmap value (peptide array signal) (DIDO1; DIDO1, sheet "Array Heatmap"): 0.6775
Array Heatmap value (peptide array signal) (RAG2; RAG2, sheet "Array Heatmap"): 0.2621
Array Heatmap value (peptide array signal) (DPF2 (PPC2W2); DPF2 (PPC2W2), sheet "Array Heatmap"): 0.7444
Array Heatmap value (peptide array signal) (KDM5B (1); KDM5B (1), sheet "Array Heatmap"): 0.7307
Array Heatmap value (peptide array signal) (SP140L; SP140L, sheet "Array Heatmap"): 0.3664
Array Heatmap value (peptide array signal) (MORC3 (CW); MORC3 (CW), sheet "Array Heatmap"): 0.4635
Array Heatmap value (peptide array signal) (KDM5A (3); KDM5A (3), sheet "Array Heatmap"): 0.5027
Array Heatmap value (peptide array signal) (KDM4C (TTP); KDM4C (TTP), sheet "Array Heatmap"): 0.505
Array Heatmap value (peptide array signal) (ING5; ING5, sheet "Array Heatmap"): 0.3576
Array Heatmap value (peptide array signal) (MLL5; MLL5, sheet "Array Heatmap"): 0.5655
Array Heatmap value (peptide array signal) (TRIM66 (PB); TRIM66 (PB), sheet "Array Heatmap"): 0.5982
Array Heatmap value (peptide array signal) (KDM7A; KDM7A, sheet "Array Heatmap"): 0.3927
Array Heatmap value (peptide array signal) (CHD5 (PCC); CHD5 (PCC), sheet "Array Heatmap"): 0.7075
Array Heatmap value (peptide array signal) (KDM5A (1); KDM5A (1), sheet "Array Heatmap"): 0.4813
Array Heatmap value (peptide array signal) (PHF8; PHF8, sheet "Array Heatmap"): 0.3597
Array Heatmap value (peptide array signal) (AIRE (PP); AIRE (PP), sheet "Array Heatmap"): 0.5458
Array Heatmap value (peptide array signal) (TAF3; TAF3, sheet "Array Heatmap"): 0.2816
Array Heatmap value (peptide array signal) (PHF2; PHF2, sheet "Array Heatmap"): 0.4084
Array Heatmap value (peptide array signal) (ING3; ING3, sheet "Array Heatmap"): 0.4519
Array Heatmap value (peptide array signal) (BPTF (PB); BPTF (PB), sheet "Array Heatmap"): 0.3434
Array Heatmap value (peptide array signal) (KDM5B (3); KDM5B (3), sheet "Array Heatmap"): 0.448
Array Heatmap value (peptide array signal) (BAZ2B; BAZ2B, sheet "Array Heatmap"): 0.4901
Array Heatmap value (peptide array signal) (PHF13; PHF13, sheet "Array Heatmap"): 0.586
Array Heatmap value (peptide array signal) (ING1; ING1, sheet "Array Heatmap"): 0.5268
Array Heatmap value (peptide array signal) (PHF21A; PHF21A, sheet "Array Heatmap"): 0.434
Array Heatmap value (peptide array signal) (PHF23; PHF23, sheet "Array Heatmap"): 0.5317
Array Heatmap value (peptide array signal) (PHRF1 (RP); PHRF1 (RP), sheet "Array Heatmap"): 0.6228
Array Heatmap value (peptide array signal) (ING4; ING4, sheet "Array Heatmap"): 0.4589
Array Heatmap value (peptide array signal) (ING2; ING2, sheet "Array Heatmap"): 0.6127

H3K18ac: H3 1-20 [Peptide H3K18ac]
Array Heatmap signal (histone peptide microarray) (CHD4 (PPCC); GST-tagged CHD4 (PPCC = Dual PHD + Dual Chromodomain), sheet Array Heatmap): 0.5741
Array Heatmap signal (histone peptide microarray) (CHD5 (PPCC); GST-tagged CHD5 (PPCC = Dual PHD + Dual Chromodomain), sheet Array Heatmap): 0.5749
Array Heatmap signal (histone peptide microarray) (DIDO1; GST-tagged DIDO1, sheet Array Heatmap): 0.6541
Array Heatmap signal (histone peptide microarray) (RAG2; GST-tagged RAG2, sheet Array Heatmap): 0.2722
Array Heatmap signal (histone peptide microarray) (DPF2 (PPC2W2); GST-tagged DPF2 (PPC2W2 = Dual PHD + C2W2-type Zn-finger), sheet Array Heatmap): 0.8135
Array Heatmap signal (histone peptide microarray) (KDM5B (1); GST-tagged KDM5B (1), sheet Array Heatmap): 0.7147
Array Heatmap signal (histone peptide microarray) (SP140L; GST-tagged SP140L, sheet Array Heatmap): 0.3771
Array Heatmap signal (histone peptide microarray) (MORC3 (CW); GST-tagged MORC3 (CW = CW-type Zn-finger), sheet Array Heatmap): 0.6663
Array Heatmap signal (histone peptide microarray) (KDM5A (3); GST-tagged KDM5A (3), sheet Array Heatmap): 0.7024
Array Heatmap signal (histone peptide microarray) (KDM4C (TTP); GST-tagged KDM4C (TTP = Tandem Tudor domain + PHD), sheet Array Heatmap): 0.5068
Array Heatmap signal (histone peptide microarray) (ING5; GST-tagged ING5, sheet Array Heatmap): 0.3604
Array Heatmap signal (histone peptide microarray) (MLL5; GST-tagged MLL5, sheet Array Heatmap): 0.5221
Array Heatmap signal (histone peptide microarray) (TRIM66 (PB); GST-tagged TRIM66 (PB = PHD + Bromodomain), sheet Array Heatmap): 0.7719
Array Heatmap signal (histone peptide microarray) (KDM7A; GST-tagged KDM7A, sheet Array Heatmap): 0.36
Array Heatmap signal (histone peptide microarray) (CHD5 (PCC); GST-tagged CHD5 (PCC = PHD + Dual Chromodomain), sheet Array Heatmap): 0.8176
Array Heatmap signal (histone peptide microarray) (KDM5A (1); GST-tagged KDM5A (1), sheet Array Heatmap): 0.495
Array Heatmap signal (histone peptide microarray) (PHF8; GST-tagged PHF8, sheet Array Heatmap): 0.3469
Array Heatmap signal (histone peptide microarray) (AIRE (PP); GST-tagged AIRE (PP), sheet Array Heatmap): 0.6319
Array Heatmap signal (histone peptide microarray) (TAF3; GST-tagged TAF3, sheet Array Heatmap): 0.3122
Array Heatmap signal (histone peptide microarray) (PHF2; GST-tagged PHF2, sheet Array Heatmap): 0.5028
Array Heatmap signal (histone peptide microarray) (ING3; GST-tagged ING3, sheet Array Heatmap): 0.4594
Array Heatmap signal (histone peptide microarray) (BPTF (PB); GST-tagged BPTF (PB = PHD + Bromodomain), sheet Array Heatmap): 0.3398
Array Heatmap signal (histone peptide microarray) (KDM5B (3); GST-tagged KDM5B (3), sheet Array Heatmap): 0.5801
Array Heatmap signal (histone peptide microarray) (BAZ2B; GST-tagged BAZ2B, sheet Array Heatmap): 0.4617
Array Heatmap signal (histone peptide microarray) (PHF13; GST-tagged PHF13, sheet Array Heatmap): 0.6049
Array Heatmap signal (histone peptide microarray) (ING1; GST-tagged ING1, sheet Array Heatmap): 0.5131
Array Heatmap signal (histone peptide microarray) (PHF21A; GST-tagged PHF21A, sheet Array Heatmap): 0.4738
Array Heatmap signal (histone peptide microarray) (PHF23; GST-tagged PHF23, sheet Array Heatmap): 0.5309
Array Heatmap signal (histone peptide microarray) (PHRF1 (RP); GST-tagged PHRF1 (RP), sheet Array Heatmap): 0.9005
Array Heatmap signal (histone peptide microarray) (ING4; GST-tagged ING4, sheet Array Heatmap): 0.4378
Array Heatmap signal (histone peptide microarray) (ING2; GST-tagged ING2, sheet Array Heatmap): 0.5886
